# Measurements published in ChEMBL document CHEMBL5528056, “BAY-9835: Discovery of the First Orally Bioavailable ADAMTS7 Inhibitor” (J Med Chem, 2024).
# Tests used:
# [1] = Fraction unbound in dog plasma; format: ADME, cell-free, Canis lupus familiaris
# [2] = Dose normalized AUC in C57bl6 mouse at 1 mg/kg, po measured for >24 hrs by HPLC-MS/MS analysis; format: ADME, organism-based; conditions: in vivo
# [3] = biological target: Sodium channel protein type 5 subunit alpha (Homo sapiens, UniProt Q14524); assay: Inhibition of hNaV1.5 upto 10 uM by voltage clamp method; format: toxicity
# Cytochrome P450 2D6 = Cytochrome P450 2D6 (Homo sapiens, UniProt P10635); assay: Inhibition of CYP2D6 in human liver microsomes using dextromethorphan as substrate upto 20 uM by LC-MS/MS analysis; format: ADME, Microsome
# [4] = Half life in Wistar rat at 1 mg/kg, po measured for >24 hrs by HPLC-MS/MS analysis; format: ADME, organism-based; conditions: in vivo
# [5] = Half life in C57bl6 mouse at 0.3 mg/kg, iv measured for >24 hrs by HPLC-MS/MS analysis; format: ADME, organism-based; conditions: in vivo
# [6] = Tmax in C57bl6 mouse at 1 mg/kg, po measured for >24 hrs by HPLC-MS/MS analysis; format: ADME, organism-based; conditions: in vivo
# [7] = Clearance in iv-dosed Wistar rat measured after 24 hrs by HPLC-MS/MS analysis; format: ADME; conditions: in vivo
# [8] = Oral bioavailability in Wistar rat at 1 mg/kg measured for >24 hrs by HPLC-MS/MS analysis; format: ADME, organism-based; conditions: in vivo
# [9] = Oral bioavailability in C57bl6 mouse at 1 mg/kg measured for >24 hrs by HPLC-MS/MS analysis; format: ADME, organism-based; conditions: in vivo
# [10] = Dose normalized AUC in Wistar rat at 0.3 mg/kg, iv measured for >24 hrs by HPLC-MS/MS analysis; format: ADME, organism-based; conditions: in vivo
# Cytochrome P450 3A4 [11] = biological target: T1, Cytochrome P450 3A4 (Homo sapiens, UniProt P08684); assay: Inhibition of CYP3A4 in human liver microsomes using midazolam as substrate upto 20 uM by LC-MS/MS analysis; format: ADME, Microsome
# [12] = biological target: Voltage-dependent L-type calcium channel subunit alpha-1C (Homo sapiens, UniProt Q13936); assay: Inhibition of hCaV1.2 upto 10 uM by voltage clamp method; format: toxicity
# [13] = Volume of distribution at steady state in Beagle dog at 0.3 mg/kg, iv measured for >24 hrs by HPLC-MS/MS analysis; format: ADME, organism-based, Canis lupus familiaris; conditions: in vivo
# [14] = Half life in Beagle dog at 0.3 mg/kg, iv measured for >24 hrs by HPLC-MS/MS analysis; format: ADME, organism-based, Canis lupus familiaris; conditions: in vivo
# [15] = Genotoxicity in Salmonella typhimurium by Ames […] test; format: toxicity; conditions: salmonella enterica subsp. enterica serovar typhimurium
# [16] = Lipophilicity, logD of compound at pH 7.5; format: physicochemical; conditions: buffer
# [17] = Fraction unbound in mouse plasma; format: ADME, cell-free
# [18] = Selectivity ratio of IC50 for ADAMTS12 (unknown origin) to IC50 for ADAMTS7 (unknown origin)
# [19] = Solubility of compound in water at pH 7 measured after 24 hrs by HPLC analysis; format: physicochemical; conditions: buffer, pH 7, 24 h
# [20] = Stability in human plasma measured for 4 hrs by HPLC analysis; format: ADME, cell-free
# [21] = Selectivity ratio of IC50 for C-terminal 10His-tagged recombinant human MMP-14 (21 to 284 residues) expressed in Escherichia coli using McaKPLGL-Dpa-AR-NH2 as substrate to IC50 for ADAMTS7 (unknown origin)
# [22] = Half life in Beagle dog at 1 mg/kg, po measured for >24 hrs by HPLC-MS/MS analysis; format: ADME, organism-based, Canis lupus familiaris; conditions: in vivo
# Cytochrome P450 3A4 [23] = biological target: T1, Cytochrome P450 3A4; assay: Induction of CYP3A4 in human hepatocytes assessed as threshold concentration incubated for 48 hrs by qPCR analysis; format: ADME, cell-based, Hepatocyte
# [24] = Selectivity ratio of IC50 for ADAMTS4 (unknown origin) to IC50 for ADAMTS7 (unknown origin)
# [25] = Volume of distribution at steady state in C57bl6 mouse at 0.3 mg/kg, iv measured for >24 hrs by HPLC-MS/MS analysis; format: ADME, organism-based; conditions: in vivo
# [26] = Selectivity ratio of IC50 for ADAMTS5 (unknown origin) to IC50 for ADAMTS7 (unknown origin)
# [27] = Clearance in Wistar rat at 0.3 mg/kg, iv measured for >24 hrs by HPLC-MS/MS analysis; format: ADME, organism-based; conditions: in vivo
# [28] = Clearance in Beagle dog at 0.3 mg/kg, iv measured for >24 hrs by HPLC-MS/MS analysis; format: ADME, organism-based, Canis lupus familiaris; conditions: in vivo
# [29] = biological target: Voltage-gated inwardly rectifying potassium channel KCNH2 (Homo sapiens, UniProt Q12809); assay: Inhibition of hERG upto 10 uM by whole-cell voltage clamp method; format: toxicity
# [30] = Selectivity ratio of IC50 for ADAM17 (unknown origin) to IC50 for ADAMTS7 (unknown origin)
# Cytochrome P450 1A2 = biological target: T2, Cytochrome P450 1A2 (Homo sapiens, UniProt P05177); assay: Inhibition of CYP1A2 in human liver microsomes using phenacetin as substrate upto 20 uM by LC-MS/MS analysis; format: ADME, Microsome
# T2 sequence (P05177 whole entry): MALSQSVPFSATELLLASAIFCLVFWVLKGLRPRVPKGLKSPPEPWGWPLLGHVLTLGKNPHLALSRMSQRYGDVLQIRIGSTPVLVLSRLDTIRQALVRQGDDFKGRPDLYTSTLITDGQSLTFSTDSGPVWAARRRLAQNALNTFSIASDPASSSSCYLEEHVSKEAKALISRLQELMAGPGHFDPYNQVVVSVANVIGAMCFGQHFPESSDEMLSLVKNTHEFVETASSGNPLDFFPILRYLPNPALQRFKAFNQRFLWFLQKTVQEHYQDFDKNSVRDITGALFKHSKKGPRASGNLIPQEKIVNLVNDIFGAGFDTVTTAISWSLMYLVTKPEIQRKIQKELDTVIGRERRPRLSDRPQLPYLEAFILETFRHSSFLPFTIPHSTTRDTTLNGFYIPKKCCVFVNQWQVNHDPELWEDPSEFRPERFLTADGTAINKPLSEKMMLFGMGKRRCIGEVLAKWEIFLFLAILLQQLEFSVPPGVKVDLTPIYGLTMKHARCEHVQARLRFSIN
# [31] = Dose normalized AUC in C57bl6 mouse at 0.3 mg/kg, iv measured for >24 hrs by HPLC-MS/MS analysis; format: ADME, organism-based; conditions: in vivo
# [32] = Selectivity ratio of IC50 for C-terminal 10His-tagged recombinant human ADAM10 (214 to 672 residues) expressed in baculovirus infected Sf21 cells using Dabcyl-SSNQLQRR-Glu(EDANS)-NH2 as substrate to IC50 for ADAMTS7 (unknown origin)
# [33] = Stability in aqueous solution at pH 1 to 7 measured after 24 hrs by HPLC analysis; format: physicochemical; conditions: buffer, pH 1, 24 h
# [34] = Half life in Wistar rat at 0.3 mg/kg, iv measured for >24 hrs by HPLC-MS/MS analysis; format: ADME, organism-based; conditions: in vivo
# [35] = biological target: A disintegrin and metalloproteinase with thrombospondin motifs 7 (Mus musculus, UniProt Q68SA9); assay: Inhibition of recombinant mouse ADAMTS7 using HiLyteFluor-488 DELSSMVLELRGLRT-K(QXL520)-E-NH2 as substrate incubated for 120 mins by FRET assay
# [36] = Solubility of compound in FeSSIF measured after 24 hrs by HPLC analysis; format: ADME; conditions: simulated gi fluid
# T1 sequence (P08684 whole entry): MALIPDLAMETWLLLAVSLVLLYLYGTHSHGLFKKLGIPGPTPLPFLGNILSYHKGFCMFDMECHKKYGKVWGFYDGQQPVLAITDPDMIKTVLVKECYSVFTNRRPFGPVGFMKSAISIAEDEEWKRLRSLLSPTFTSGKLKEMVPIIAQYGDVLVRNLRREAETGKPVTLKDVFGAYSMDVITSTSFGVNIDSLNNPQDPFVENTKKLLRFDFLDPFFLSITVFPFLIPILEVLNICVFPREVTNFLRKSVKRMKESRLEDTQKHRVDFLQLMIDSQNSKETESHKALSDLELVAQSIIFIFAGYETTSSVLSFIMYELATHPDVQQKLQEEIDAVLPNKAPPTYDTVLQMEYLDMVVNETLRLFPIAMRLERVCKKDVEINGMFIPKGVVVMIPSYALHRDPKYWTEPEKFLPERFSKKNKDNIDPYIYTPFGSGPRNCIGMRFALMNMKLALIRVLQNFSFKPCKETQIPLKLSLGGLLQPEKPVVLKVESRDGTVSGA
# Sodium channel protein type 5 subunit alpha, sequence (Q14524 whole entry): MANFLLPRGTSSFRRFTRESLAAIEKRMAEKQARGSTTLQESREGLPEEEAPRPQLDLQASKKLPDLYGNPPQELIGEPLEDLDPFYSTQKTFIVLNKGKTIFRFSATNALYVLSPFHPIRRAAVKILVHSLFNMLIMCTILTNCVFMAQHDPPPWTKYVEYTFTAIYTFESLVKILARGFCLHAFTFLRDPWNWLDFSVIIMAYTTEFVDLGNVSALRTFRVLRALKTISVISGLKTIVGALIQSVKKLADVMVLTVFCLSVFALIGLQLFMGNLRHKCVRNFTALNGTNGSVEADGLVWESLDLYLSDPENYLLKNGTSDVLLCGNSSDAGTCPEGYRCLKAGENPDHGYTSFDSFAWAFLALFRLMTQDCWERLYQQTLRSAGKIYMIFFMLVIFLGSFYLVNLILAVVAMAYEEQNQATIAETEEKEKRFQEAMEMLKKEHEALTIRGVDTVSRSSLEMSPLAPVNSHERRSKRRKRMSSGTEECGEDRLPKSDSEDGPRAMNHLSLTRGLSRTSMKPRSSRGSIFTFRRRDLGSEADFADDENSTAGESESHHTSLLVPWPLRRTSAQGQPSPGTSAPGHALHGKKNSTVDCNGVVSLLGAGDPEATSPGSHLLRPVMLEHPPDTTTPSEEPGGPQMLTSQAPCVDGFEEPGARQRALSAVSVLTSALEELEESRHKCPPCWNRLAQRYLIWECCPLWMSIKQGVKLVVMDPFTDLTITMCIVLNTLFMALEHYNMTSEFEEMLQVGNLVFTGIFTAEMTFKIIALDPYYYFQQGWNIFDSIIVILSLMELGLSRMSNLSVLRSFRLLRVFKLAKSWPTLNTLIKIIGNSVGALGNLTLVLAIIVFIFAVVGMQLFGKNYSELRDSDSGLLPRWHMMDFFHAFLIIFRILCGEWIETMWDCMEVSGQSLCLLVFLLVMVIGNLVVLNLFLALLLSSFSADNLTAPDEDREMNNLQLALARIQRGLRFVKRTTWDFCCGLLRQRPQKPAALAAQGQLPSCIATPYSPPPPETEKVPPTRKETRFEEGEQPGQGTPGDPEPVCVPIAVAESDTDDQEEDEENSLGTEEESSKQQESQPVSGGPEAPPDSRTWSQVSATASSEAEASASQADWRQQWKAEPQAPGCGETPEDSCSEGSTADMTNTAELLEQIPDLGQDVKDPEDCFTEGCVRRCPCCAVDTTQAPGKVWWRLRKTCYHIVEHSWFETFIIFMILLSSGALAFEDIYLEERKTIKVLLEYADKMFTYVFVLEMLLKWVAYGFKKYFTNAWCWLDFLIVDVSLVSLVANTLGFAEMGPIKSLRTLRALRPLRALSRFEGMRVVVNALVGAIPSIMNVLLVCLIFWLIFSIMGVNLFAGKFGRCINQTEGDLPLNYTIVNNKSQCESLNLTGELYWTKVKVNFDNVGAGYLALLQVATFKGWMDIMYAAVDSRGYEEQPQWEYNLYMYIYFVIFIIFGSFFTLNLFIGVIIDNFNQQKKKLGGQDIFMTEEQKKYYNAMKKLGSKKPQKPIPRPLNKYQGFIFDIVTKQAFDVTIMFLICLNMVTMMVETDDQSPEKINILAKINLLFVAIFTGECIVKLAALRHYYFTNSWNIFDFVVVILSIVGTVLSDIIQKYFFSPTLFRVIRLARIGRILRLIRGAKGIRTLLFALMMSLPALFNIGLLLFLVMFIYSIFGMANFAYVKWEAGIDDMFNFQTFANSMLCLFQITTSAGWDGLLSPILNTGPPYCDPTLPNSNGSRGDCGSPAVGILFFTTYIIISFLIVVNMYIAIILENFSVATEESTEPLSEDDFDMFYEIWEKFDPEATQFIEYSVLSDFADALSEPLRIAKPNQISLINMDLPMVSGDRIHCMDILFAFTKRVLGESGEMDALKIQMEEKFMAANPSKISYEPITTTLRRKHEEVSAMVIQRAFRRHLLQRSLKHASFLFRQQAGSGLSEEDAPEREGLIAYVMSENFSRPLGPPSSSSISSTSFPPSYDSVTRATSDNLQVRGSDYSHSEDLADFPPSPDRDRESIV
# Cytochrome P450 2D6, sequence (P10635 whole entry): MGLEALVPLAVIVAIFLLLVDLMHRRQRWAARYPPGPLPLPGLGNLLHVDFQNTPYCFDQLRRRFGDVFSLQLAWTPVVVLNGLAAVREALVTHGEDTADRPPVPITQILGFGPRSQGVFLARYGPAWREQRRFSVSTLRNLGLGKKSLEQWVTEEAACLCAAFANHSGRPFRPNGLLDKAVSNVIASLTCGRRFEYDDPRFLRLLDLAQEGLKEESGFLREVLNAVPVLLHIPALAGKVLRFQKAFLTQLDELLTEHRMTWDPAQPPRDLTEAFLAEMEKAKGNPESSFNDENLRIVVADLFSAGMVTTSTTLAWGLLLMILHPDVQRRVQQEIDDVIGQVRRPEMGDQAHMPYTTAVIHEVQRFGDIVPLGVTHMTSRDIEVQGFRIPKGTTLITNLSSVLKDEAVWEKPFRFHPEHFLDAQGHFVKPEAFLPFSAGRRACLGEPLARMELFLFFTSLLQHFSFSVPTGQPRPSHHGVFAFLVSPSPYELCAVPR
# A disintegrin and metalloproteinase with thrombospondin motifs 7, sequence (Q68SA9 whole entry): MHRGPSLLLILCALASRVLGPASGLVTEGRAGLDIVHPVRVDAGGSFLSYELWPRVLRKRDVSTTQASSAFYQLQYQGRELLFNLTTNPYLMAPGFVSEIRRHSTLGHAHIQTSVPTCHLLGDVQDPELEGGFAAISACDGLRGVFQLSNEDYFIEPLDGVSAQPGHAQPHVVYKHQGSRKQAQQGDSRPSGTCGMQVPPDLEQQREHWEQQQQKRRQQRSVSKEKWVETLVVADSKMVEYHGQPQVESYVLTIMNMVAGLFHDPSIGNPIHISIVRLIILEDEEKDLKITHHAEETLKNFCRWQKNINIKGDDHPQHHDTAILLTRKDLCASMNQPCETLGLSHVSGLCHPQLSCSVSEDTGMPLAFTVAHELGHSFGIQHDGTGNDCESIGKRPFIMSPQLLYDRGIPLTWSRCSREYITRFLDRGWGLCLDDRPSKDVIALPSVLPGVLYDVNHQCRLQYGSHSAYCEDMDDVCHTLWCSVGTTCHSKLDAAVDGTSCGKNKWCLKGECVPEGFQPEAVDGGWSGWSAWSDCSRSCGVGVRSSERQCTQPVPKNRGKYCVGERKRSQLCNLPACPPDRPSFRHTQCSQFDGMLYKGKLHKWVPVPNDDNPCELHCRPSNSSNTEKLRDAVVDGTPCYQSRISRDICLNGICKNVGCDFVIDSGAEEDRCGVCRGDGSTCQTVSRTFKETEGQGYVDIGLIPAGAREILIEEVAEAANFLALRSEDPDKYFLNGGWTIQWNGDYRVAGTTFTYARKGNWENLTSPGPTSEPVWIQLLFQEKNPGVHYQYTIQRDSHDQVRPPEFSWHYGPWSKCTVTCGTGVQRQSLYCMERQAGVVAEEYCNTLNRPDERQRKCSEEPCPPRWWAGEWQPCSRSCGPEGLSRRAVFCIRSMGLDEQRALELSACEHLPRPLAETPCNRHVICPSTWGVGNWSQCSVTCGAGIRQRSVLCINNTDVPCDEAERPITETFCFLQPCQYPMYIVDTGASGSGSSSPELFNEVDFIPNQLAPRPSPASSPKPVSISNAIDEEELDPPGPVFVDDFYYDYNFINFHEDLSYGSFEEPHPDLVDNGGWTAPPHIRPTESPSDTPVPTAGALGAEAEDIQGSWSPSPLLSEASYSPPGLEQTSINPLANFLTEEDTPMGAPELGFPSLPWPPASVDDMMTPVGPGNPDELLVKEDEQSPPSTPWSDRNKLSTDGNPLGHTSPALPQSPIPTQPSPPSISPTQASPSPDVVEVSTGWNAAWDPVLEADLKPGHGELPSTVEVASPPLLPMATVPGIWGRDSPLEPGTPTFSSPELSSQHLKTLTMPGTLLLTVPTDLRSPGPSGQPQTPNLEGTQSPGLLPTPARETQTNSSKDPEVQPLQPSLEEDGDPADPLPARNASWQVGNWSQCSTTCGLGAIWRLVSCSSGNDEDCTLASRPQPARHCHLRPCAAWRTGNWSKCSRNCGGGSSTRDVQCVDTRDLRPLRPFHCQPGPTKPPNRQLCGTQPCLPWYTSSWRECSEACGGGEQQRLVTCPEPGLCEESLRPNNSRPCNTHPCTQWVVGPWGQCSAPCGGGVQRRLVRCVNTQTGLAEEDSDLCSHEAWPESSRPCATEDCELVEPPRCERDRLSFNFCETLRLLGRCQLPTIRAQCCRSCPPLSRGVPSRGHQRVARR
smiles,measurement,setting,value
Cn1nccc1[C@]1(CNC(=O)c2ccc(F)c(F)c2-c2ccc(C(F)(F)F)cc2)NC(=O)NC1=O,Fu,[1],5%
same,AUC/dose,[2],2 kg·h/L
same,inhibition (INH),[3],Not Active
same,inhibition (INH),Cytochrome P450 2D6,Not Active
same,t1/2,[4],3.7 h
same,t1/2,[5],2.1 h
same,Tmax,[6],1 h
same,CL,[7],0.6 L/kg/h
same,F,[8],96%
same,bioavailability,[9],100%
same,AUC/dose,[10],3.1 kg·h/L
same,inhibition (INH),Cytochrome P450 3A4 [11],Not Active
same,inhibition (INH),[12],Not Active
same,Vdss,[13],0.4 L/kg
same,t1/2,[14],22 h
same,Activity,[15],Non-Toxic
same,logD,[16],3.2
same,Fu,[17],11%
same,Ratio IC50,[18],5
same,solubility,[19],135 mg/L
same,Stability,[20],Stable
same,Ratio IC50,[21],> 16700
same,t1/2,[22],25 h
same,Activity,Cytochrome P450 3A4 [23],18 µM
same,Ratio IC50,[24],1120
same,Vdss,[25],1.6 L/kg
same,Ratio IC50,[26],1650
same,CL,[27],0.55 L/h/kg
same,CL,[28],0.02 L/h/kg
same,inhibition (INH),[29],Not Active
same,Ratio IC50,[30],962
same,inhibition (INH),Cytochrome P450 1A2,Not Active
same,AUC/dose,[31],1.15 kg·h/L
same,Ratio IC50,[32],5470
same,Stability,[33],Stable
same,t1/2,[34],3.6 h
same,IC50,[35],8 nM
same,solubility,[36],513 mg/L
